Five compounds from publication doi:10.1101/2024.08.19.608619, “Discovery of potent SARS-CoV-2 nsp3 macrodomain inhibitors uncovers lack of translation to cellular antiviral response” (bioRxiv, 2024) can be followed below.

What all share (assay): biochemical
Parameters in all cases: In vitro kinase panel profiling, per cent remaining kinase activity at 10 uM

The target of test [1] is ALK(h) (Homo sapiens, UniProt Q9UM73). The following applies: atp_concentration=200, read-out: % of control remaining. The text has this: (§1) We derisk potential for off-target activity by profiling the compound in a CEREP panel, a standard secondary pharmacology assessment, as well as a kinase panel to derisk a potential hinge-binding motif in our leads, and a PARP panel to derisk activity against human […]. Reassuringly, the compounds are selective, with the only off-targets being moderate human CHRM2 and KOR receptors activity associated with ASAP-0011198.

Test [2] addresses EphA5(h) (Homo sapiens, UniProt P54756). The settings on record: atp_concentration=10, read-out: % of control remaining.
Description: as §1

In test [3] the target is Fyn(h) (Homo sapiens, UniProt P06241). The settings on record: atp_concentration=70, read-out: % of control remaining.
Chain of Fyn(h) (P06241 whole entry): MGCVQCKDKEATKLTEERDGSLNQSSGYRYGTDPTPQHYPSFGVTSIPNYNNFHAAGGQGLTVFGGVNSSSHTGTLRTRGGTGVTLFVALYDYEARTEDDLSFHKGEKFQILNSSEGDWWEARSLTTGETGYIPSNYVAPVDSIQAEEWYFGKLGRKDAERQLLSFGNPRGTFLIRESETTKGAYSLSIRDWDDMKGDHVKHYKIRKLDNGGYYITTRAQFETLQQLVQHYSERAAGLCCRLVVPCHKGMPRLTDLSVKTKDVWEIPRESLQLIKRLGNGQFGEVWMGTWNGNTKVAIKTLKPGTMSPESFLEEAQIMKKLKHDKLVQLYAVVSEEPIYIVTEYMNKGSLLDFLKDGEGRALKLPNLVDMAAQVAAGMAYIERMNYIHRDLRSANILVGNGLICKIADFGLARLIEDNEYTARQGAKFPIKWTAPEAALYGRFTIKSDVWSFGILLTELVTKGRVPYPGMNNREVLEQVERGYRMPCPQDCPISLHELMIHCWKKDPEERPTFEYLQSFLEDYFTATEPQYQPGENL
Description: as §1

Test [4] deals with T1, IGF-1R(h) (Homo sapiens, UniProt P08069).
T1 construct: gene IGF1R
T1 sequence (P08069 whole entry): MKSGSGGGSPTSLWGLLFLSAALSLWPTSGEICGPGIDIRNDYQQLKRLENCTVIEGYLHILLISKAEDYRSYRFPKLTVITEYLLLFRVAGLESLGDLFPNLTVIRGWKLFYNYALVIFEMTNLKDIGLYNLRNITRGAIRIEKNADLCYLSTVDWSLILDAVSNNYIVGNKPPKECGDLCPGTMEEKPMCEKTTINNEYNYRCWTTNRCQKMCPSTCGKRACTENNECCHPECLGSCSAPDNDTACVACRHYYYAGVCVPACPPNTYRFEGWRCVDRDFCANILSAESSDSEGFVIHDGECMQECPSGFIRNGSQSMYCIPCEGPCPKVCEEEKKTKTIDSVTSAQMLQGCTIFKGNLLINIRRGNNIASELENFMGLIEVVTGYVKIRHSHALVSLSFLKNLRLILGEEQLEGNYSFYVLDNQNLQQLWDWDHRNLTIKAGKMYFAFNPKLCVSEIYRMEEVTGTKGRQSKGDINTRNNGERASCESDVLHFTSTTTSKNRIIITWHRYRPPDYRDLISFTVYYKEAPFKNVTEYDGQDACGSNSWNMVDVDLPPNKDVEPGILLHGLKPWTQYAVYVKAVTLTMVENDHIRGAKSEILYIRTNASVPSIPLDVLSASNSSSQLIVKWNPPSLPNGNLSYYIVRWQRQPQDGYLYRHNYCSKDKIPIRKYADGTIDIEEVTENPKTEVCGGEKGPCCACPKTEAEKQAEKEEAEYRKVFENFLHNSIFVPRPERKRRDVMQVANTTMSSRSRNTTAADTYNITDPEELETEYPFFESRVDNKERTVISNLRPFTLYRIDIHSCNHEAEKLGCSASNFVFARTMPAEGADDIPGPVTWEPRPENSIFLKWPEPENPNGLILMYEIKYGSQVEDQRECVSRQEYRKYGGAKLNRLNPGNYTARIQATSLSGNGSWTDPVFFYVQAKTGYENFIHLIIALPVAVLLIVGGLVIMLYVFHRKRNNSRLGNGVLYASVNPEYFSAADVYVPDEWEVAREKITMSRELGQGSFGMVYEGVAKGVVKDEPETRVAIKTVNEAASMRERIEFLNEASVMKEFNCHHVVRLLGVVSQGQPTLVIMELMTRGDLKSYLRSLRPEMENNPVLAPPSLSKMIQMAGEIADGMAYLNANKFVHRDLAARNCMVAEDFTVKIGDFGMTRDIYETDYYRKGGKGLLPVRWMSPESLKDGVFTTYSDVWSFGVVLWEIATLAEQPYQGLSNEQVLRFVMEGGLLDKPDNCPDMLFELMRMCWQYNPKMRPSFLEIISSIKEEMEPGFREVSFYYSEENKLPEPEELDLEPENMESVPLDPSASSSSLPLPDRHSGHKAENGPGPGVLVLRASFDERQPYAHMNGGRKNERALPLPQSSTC
The settings on record: atp_concentration=200, read-out: % of control remaining.
Description: as §1

Test [5] deals with KDR(h) (Homo sapiens, UniProt P35968). The following applies: atp_concentration=90, read-out: % of control remaining.
Description: as §1

Test [6] has as its target T2, MEK1(h) (Homo sapiens, UniProt Q02750).
T2 construct: gene MAP2K1
The settings on record: atp_concentration=10, read-out: % of control remaining.
Description: as §1

Test [7] addresses PAK2(h) (Homo sapiens, UniProt Q13177). The settings on record: atp_concentration=90, read-out: % of control remaining.
Description: as §1

In test [8] the target is T3, PDGFRβ(h) (Homo sapiens, UniProt P09619).
T3 construct: gene PDGFRB
The settings on record: atp_concentration=200, read-out: % of control remaining.
Description: as §1

For test [9], the target named is T4, PKA(h) (Homo sapiens, UniProt P17612).
T4 construct: gene PRKACA
The settings on record: atp_concentration=10, read-out: % of control remaining.
Description: as §1

For test [10], the target named is T5, Pim-1(h) (Homo sapiens, UniProt P11309).
T5 construct: gene PIM1
The following applies: atp_concentration=90, read-out: % of control remaining.
Description: as §1

Test [11] deals with Plk3(h) (Homo sapiens, UniProt Q9H4B4). The following applies: atp_concentration=70, read-out: % of control remaining.
Description: as §1

The target of test [12] is T6, ROCK-I(h) (Homo sapiens, UniProt Q13464).
T6 construct: gene ROCK1
T6 sequence (Q13464 whole entry): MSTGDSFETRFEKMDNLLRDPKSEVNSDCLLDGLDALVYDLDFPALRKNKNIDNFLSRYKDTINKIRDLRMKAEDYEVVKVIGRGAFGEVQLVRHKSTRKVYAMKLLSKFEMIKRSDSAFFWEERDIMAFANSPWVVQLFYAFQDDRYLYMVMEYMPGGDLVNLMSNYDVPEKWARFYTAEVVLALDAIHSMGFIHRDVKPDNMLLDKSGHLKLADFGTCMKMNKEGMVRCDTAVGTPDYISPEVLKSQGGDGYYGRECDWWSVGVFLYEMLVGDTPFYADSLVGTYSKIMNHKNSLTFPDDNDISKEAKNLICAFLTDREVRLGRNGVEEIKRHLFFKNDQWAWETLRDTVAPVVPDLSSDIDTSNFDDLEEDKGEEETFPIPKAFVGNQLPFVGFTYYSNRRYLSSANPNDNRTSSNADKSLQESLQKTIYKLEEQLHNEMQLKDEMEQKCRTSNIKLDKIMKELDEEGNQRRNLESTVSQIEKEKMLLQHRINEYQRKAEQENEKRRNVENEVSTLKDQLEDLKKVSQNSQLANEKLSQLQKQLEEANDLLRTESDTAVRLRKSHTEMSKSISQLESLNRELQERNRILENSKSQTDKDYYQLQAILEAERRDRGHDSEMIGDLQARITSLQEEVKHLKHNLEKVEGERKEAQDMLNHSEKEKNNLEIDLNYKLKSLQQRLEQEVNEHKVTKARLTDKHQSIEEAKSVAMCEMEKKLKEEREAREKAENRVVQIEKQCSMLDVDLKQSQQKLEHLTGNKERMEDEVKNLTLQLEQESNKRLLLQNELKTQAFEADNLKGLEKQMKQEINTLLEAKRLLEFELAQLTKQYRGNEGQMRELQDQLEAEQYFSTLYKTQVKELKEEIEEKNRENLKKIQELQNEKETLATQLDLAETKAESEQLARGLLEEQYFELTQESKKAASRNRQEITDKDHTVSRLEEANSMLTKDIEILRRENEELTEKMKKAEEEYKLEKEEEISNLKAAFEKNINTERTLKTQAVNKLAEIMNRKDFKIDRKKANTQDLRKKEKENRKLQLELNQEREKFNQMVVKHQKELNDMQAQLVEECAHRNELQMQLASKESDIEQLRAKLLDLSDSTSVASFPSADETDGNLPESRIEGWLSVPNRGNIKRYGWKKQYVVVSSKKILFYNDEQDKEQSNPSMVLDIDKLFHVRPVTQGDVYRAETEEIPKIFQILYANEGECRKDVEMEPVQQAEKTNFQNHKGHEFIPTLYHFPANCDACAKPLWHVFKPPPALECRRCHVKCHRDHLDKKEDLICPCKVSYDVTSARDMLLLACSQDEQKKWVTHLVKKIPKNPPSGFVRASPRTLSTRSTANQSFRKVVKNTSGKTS
The following applies: atp_concentration=70, read-out: % of control remaining.
Description: as §1

In test [13] the target is SRPK1(h) (Homo sapiens, UniProt Q96SB4). The following applies: atp_concentration=10, read-out: % of control remaining.
Description: as §1

The target in test [14] is T7, c-RAF(h) (Homo sapiens, UniProt P04049).
T7 construct: gene RAF1
The settings on record: atp_concentration=120, read-out: % of control remaining.
Description: as §1

The target in test [15] is T8, eEF-2K(h) (Homo sapiens, UniProt O00418).
T8 construct: gene EEF2K
T8 sequence (O00418 1-725): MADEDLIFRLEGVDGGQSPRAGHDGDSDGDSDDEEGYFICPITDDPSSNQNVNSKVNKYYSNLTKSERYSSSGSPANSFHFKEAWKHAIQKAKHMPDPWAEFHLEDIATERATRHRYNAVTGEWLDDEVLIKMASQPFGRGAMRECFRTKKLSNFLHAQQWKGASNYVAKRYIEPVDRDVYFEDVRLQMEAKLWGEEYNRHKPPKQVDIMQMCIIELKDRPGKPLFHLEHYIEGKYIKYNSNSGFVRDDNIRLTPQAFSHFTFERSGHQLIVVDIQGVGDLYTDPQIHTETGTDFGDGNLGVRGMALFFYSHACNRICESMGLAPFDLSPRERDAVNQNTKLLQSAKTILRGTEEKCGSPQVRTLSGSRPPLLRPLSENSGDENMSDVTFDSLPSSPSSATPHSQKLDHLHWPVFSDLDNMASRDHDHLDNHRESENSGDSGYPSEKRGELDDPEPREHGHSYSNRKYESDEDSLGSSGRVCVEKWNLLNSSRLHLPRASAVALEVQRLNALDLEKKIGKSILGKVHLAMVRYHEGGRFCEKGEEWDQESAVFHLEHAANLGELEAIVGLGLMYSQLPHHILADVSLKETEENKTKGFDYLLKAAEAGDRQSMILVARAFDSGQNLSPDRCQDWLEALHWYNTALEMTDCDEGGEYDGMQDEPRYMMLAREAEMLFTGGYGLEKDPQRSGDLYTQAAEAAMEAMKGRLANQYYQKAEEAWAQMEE
The settings on record: atp_concentration=15, read-out: % of control remaining.
Description: as §1

Structures are written as SMILES. Read-outs that look alike come from different tables or passages of the source.

Chain of PAK2(h) (Q13177 whole entry): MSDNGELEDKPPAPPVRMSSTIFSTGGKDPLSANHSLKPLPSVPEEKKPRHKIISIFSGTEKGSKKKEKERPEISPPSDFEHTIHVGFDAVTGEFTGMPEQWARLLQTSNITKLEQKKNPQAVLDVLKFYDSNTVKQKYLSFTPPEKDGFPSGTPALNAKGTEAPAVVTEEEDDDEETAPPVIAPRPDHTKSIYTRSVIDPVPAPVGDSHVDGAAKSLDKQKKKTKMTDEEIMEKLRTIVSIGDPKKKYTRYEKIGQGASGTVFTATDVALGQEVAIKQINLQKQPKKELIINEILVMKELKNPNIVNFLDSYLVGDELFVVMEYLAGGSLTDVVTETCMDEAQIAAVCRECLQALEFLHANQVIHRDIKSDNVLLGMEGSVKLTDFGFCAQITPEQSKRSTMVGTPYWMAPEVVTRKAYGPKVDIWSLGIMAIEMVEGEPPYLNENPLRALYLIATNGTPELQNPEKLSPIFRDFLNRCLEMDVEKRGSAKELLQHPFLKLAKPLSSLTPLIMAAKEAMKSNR
Chain of EphA5(h) (P54756 whole entry): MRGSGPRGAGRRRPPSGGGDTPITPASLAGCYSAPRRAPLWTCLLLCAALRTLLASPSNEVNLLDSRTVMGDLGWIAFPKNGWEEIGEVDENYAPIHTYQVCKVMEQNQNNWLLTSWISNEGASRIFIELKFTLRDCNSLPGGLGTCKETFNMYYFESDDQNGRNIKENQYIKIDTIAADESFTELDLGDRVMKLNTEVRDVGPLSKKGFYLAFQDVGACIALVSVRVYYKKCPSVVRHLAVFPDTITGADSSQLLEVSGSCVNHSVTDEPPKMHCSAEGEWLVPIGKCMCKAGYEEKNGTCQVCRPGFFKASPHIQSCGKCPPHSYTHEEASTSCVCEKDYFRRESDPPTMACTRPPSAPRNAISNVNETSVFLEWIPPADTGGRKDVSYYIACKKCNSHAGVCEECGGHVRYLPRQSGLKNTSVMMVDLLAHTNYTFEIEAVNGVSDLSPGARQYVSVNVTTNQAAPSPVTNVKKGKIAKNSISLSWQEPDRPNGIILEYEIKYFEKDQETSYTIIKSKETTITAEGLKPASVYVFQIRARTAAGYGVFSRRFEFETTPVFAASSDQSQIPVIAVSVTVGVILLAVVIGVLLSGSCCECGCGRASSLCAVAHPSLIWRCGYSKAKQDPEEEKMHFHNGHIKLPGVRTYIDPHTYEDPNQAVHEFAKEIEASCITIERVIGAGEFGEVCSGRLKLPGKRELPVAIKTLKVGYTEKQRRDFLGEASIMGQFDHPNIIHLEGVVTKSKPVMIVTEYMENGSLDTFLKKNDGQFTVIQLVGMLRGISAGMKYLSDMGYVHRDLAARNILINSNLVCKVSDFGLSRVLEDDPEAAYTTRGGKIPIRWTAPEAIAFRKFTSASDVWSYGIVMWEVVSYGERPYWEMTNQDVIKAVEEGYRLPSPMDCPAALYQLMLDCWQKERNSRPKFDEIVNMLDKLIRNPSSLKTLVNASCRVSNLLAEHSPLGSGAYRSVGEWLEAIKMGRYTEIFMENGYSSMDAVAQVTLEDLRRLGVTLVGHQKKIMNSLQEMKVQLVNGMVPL

As to `CC(C)C(Nc1ncnc2[nH]ccc12)c1ccc2c(c1)S(=O)(=O)CCC2` (stereo not drawn) [ASAP-0008327], the remaining activity at 10 µM was 93% in test [1] (batch_name=ASAP-0008327-001); 110% in test [2] (batch_name=ASAP-0008327-001); 127% in [3] (batch_name=ASAP-0008327-001); 88% in test [4] (batch_name=ASAP-0008327-001); 82% in [5] (batch_name=ASAP-0008327-001); 97% in test [6] (batch_name=ASAP-0008327-001). Also, the remaining activity at 10 µM was determined as 110% in test [7] (batch_name=ASAP-0008327-001); 99% in test [8] (batch_name=ASAP-0008327-001); 98% in test [9] (batch_name=ASAP-0008327-001); 80% in test [10] (batch_name=ASAP-0008327-001); 103% in test [11] (batch_name=ASAP-0008327-001); 110% in [12] (batch_name=ASAP-0008327-001). The remaining activity at 10 µM in test [13] (batch_name=ASAP-0008327-001) turned out to be 105%; in [14] (batch_name=ASAP-0008327-001), 97%; in test [15] (batch_name=ASAP-0008327-001) it was 92%.
Consider `COc1ccc([C@@H](Cc2nnn[nH]2)NC(=O)c2ncnc3[nH]ccc23)cc1` [ASAP-0008340], for which the remaining activity at 10 µM came to 95% in test [1] (batch_name=ASAP-0008340-001); 106% in [2] (batch_name=ASAP-0008340-001); 105% in test [3] (batch_name=ASAP-0008340-001); 106% in test [4] (batch_name=ASAP-0008340-001); 79% in test [5] (batch_name=ASAP-0008340-001); 92% in [6] (batch_name=ASAP-0008340-001). Moreover, the remaining activity at 10 µM in [7] (batch_name=ASAP-0008340-001) came out at 102%; in test [8] (batch_name=ASAP-0008340-001), 102%; in [9] (batch_name=ASAP-0008340-001), 105%; in test [10] (batch_name=ASAP-0008340-001), 91%; in test [11] (batch_name=ASAP-0008340-001), 102%; in test [12] (batch_name=ASAP-0008340-001), 93%. The remaining activity at 10 µM in test [13] (batch_name=ASAP-0008340-001) was found to be 102%; in test [14] (batch_name=ASAP-0008340-001), 90%; in test [15] (batch_name=ASAP-0008340-001), 96%.
Consider `CC(C)[C@@H](Nc1ncnc2[nH]c(-c3cnn(C)c3C#N)cc12)c1ccc2c(n1)OCCO2` [ASAP-0008418], for which the remaining activity at 10 µM in test [1] (batch_name=ASAP-0008418-001) is 103%; in test [2] (batch_name=ASAP-0008418-001) it was 91%; in test [3] (batch_name=ASAP-0008418-001), 56%; in test [4] (batch_name=ASAP-0008418-001) it was 108%; in [5] (batch_name=ASAP-0008418-001) it was 80%; in [6] (batch_name=ASAP-0008418-001), 99%. For the same compound, the remaining activity at 10 µM in [7] (batch_name=ASAP-0008418-001) turned out to be 95%; in test [8] (batch_name=ASAP-0008418-001), 108%; in test [9] (batch_name=ASAP-0008418-001), 92%; in test [10] (batch_name=ASAP-0008418-001), 79%; in [11] (batch_name=ASAP-0008418-001) it was 90%; in test [12] (batch_name=ASAP-0008418-001) it was 93%. Also, the remaining activity at 10 µM was found to be 92% in test [13] (batch_name=ASAP-0008418-001), 81% in test [14] (batch_name=ASAP-0008418-001) and 111% in test [15] (batch_name=ASAP-0008418-001).
Take `CC(C)[C@H](Nc1ncnc2[nH]ccc12)c1ccc2c(c1)S(=O)(=O)CCC2` [ASAP-0008674]: the remaining activity at 10 µM in test [1] (batch_name=ASAP-0008674-002) came out at 100%; in [2] (batch_name=ASAP-0008674-002) it was 102%; in test [3] (batch_name=ASAP-0008674-002), 96%; in test [4] (batch_name=ASAP-0008674-002) it was 100%; in [5] (batch_name=ASAP-0008674-002), 86%; in test [6] (batch_name=ASAP-0008674-002), 94%. Also, the remaining activity at 10 µM turned out to be 102% in [7] (batch_name=ASAP-0008674-002); 89% in test [8] (batch_name=ASAP-0008674-002); 89% in [9] (batch_name=ASAP-0008674-002); 91% in test [10] (batch_name=ASAP-0008674-002); 112% in [11] (batch_name=ASAP-0008674-002); 115% in test [12] (batch_name=ASAP-0008674-002). For the same compound, the remaining activity at 10 µM in test [13] (batch_name=ASAP-0008674-002) came to 100%; in test [14] (batch_name=ASAP-0008674-002) it was 107%; in [15] (batch_name=ASAP-0008674-002), 93%.
For the compound `CC(C)[C@H](Nc1ncnc2[nH]c(-c3cnn(C)c3C#N)cc12)c1ccc2c(n1)OCCO2` [ASAP-0010715], the remaining activity at 10 µM stood at 116% in [1] (batch_name=ASAP-0010715-002); 102% in test [2] (batch_name=ASAP-0010715-002); 80% in test [3] (batch_name=ASAP-0010715-002); 85% in test [4] (batch_name=ASAP-0010715-002); 76% in test [5] (batch_name=ASAP-0010715-002); 97% in test [6] (batch_name=ASAP-0010715-002). The remaining activity at 10 µM was 99% in test [7] (batch_name=ASAP-0010715-002); 92% in test [8] (batch_name=ASAP-0010715-002); 82% in test [9] (batch_name=ASAP-0010715-002); 98% in [10] (batch_name=ASAP-0010715-002); 102% in test [11] (batch_name=ASAP-0010715-002); 115% in [12] (batch_name=ASAP-0010715-002). In addition, the values for the remaining activity at 10 µM in test [13] (batch_name=ASAP-0010715-002), in [14] (batch_name=ASAP-0010715-002) and in [15] (batch_name=ASAP-0010715-002) were 111%, 97% and 108%, respectively.
